Laboratory results: patent publication US9688678B2, “Oxindole compounds carrying a nitrogen-bound spiro substituent and use thereof for treating vasopressin-related diseases” (AbbVie Deutschland GmbH & Co. KG, priority 2014, dated 2017)

What was measured:
[1] = target: human vasopressin V1b receptor (Homo sapiens (Human), UniProt P47901); test: Vasopressin V1b receptor binding assay; details: membranes from CHO-K1 cells, displacement of 3H-AVP
Experimental: The test substances were dissolved in a concentration of 5 mM in 100% DMSO and further diluted to 5×10^−4 M to 5×10^−9 M. These serial DMSO predilutions were diluted 1:10 with assay buffer. The substance concentration was further diluted 1:5 in the assay mixture resulting in 2% DMSO in the mixture. All dilutions were performed in a Biomek NX automation workstation (Beckman)
The membrane pellet was again homogenized and centrifuged as described and subsequently taken up in 50 mM Tris-HCl, pH 7.4, homogenized and stored in aliquots frozen in liquid nitrogen at −190° C.
(§1) The incubation buffer was: 50 mM Tris, 10 mM MgCl2, 0.1% BSA, pH 7.4.
All determinations were carried out as duplicate determinations. […] The liquid scintillation measurement took place in a Microbeta TriLux 12 (Wallac). Analysis:
(§2) The binding parameters were calculated by nonlinear regression in SAS.

[2] = target: human vasopressin V1a receptor (Homo sapiens (Human), UniProt P37288); test: Vasopressin V1a receptor binding assay; details: selectivity quotient, human V1a vs human V1b receptor
Experimental: The test substances were dissolved in a concentration of 5 mM M in DMSO. Further dilution of these DMSO solutions took place as described for V1b.
The membrane pellet was again homogenized in a High-Pressure-Homogenizer, Polytec 50K at 1500 PSI (Heinemann, Germany) and subsequently taken up in 50 mM Tris-HCl, pH 7.4, homogenized and stored in aliquots frozen in liquid nitrogen at −190° C.
as §1
Duplicate determinations were carried out.
After incubation (60 minutes at room temperature), the samples were processed as described for V1b.
as §2

Sequence of human vasopressin V1a receptor (P37288 whole entry): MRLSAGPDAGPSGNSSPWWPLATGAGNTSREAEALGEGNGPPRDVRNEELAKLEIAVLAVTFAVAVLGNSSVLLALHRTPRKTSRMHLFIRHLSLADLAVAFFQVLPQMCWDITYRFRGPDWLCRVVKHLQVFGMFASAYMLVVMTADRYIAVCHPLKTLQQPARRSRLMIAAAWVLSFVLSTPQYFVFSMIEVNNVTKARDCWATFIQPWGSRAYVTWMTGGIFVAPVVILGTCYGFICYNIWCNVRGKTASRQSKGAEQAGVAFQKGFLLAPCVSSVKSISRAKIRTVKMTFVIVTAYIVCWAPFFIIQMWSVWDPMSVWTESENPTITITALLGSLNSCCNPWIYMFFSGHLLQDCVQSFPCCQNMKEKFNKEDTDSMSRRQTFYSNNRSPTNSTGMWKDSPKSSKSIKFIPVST
Sequence of human vasopressin V1b receptor (P47901 whole entry): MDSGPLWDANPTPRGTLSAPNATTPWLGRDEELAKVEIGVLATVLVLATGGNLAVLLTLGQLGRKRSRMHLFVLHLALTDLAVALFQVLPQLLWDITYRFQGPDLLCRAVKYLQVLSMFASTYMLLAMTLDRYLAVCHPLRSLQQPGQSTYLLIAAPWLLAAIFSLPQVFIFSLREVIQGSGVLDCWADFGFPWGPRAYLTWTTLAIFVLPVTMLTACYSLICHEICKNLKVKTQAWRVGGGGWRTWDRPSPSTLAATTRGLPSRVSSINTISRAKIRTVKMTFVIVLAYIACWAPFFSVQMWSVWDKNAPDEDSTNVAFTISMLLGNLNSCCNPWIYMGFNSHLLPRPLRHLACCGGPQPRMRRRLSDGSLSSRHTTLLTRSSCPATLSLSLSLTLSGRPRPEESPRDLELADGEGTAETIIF

| SMILES | Ki [1] | Ki(h-V1a)/ Ki(h-V1b) [2] |
| --- | --- | --- |
| CCOc1ccc(OC)cc1C1(N2CC3(CN(C4CCN(C)CC4)C3)C2)C(=O)N(S(=O)(=O)c2ccc(OC)cn2)c2ccc(C#N)cc21 (racemic) [Example 1, (±)-3-(2-ethoxy-5-methoxy-phenyl)-1-[(5-methoxy-2-pyridyl)sulfonyl]-3-[2-(1-methyl-4-piperidyl)-2,6-diazaspiro[3.3]heptan-6-yl]-2-oxo-indoline-5-carbonitrile] | 1 to 10 nM | +++ (>75) |
| CCOc1ccc(OC)cc1C1(N2CC3(CN(C4CCN(C)CC4)C3)C2)C(=O)N(S(=O)(=O)c2ccc(OC)cc2OC)c2ccc(C#N)cc21 (racemic) [Example 2, (±)-1-(2,4-dimethoxyphenyl)sulfonyl-3-(2-ethoxy-5-methoxy-phenyl)-3-[2-(1-methyl-4-piperidyl)-2,6-diazaspiro[3.3]heptan-6-yl]-2-oxo-indoline-5-carbonitrile] | 10 to 100 nM | ++ (25-75) |
| CCOc1ccc(OC)cc1C1(N2CC3(CN(C4CCN(C)CC4)C3)C2)C(=O)N(S(=O)(=O)c2cccc3cccnc23)c2ccc(C#N)cc21 (racemic) [Example 3, (±)-3-(2-ethoxy-5-methoxy-phenyl)-3-[2-(1-methyl-4-piperidyl)-2,6-diazaspiro[3.3]heptan-6-yl]-2-oxo-1-(8-quinolylsulfonyl)indoline-5-carbonitrile] | 10 to 100 nM | +++ (>75) |
| CCOc1ccc(OC)cc1C1(N2CC3(CN(C4CCN(C)CC4)C3)C2)C(=O)N(S(=O)(=O)c2ccc(OC)cc2)c2ccc(C#N)cc21 (racemic) [Example 5, (±)-3-(2-ethoxy-5-methoxy-phenyl)-1-(4-methoxyphenyl)sulfonyl-3-[2-(1-methyl-4-piperidyl)-2,6-diazaspiro[3.3]heptan-6-yl]-2-oxo-indoline-5-carbonitrile] | 1 to 10 nM | + (10-<25) |
| CCOc1cc(F)ccc1C1(N2CC3(CN(C4CCN(C)CC4)C3)C2)C(=O)N(S(=O)(=O)c2ccc(OC)cn2)c2ccc(C#N)cc21 (racemic) [Example 7, (±)-3-(2-ethoxy-4-fluoro-phenyl)-1-[(5-methoxy-2-pyridyl)sulfonyl]-3-[2-(1-methyl-4-piperidyl)-2,6-diazaspiro[3.3]heptan-6-yl]-2-oxo-indoline-5-carbonitrile] | 1 to 10 nM | +++ (>75) |
| CCOc1ccccc1C1(N2CC3(CN(C4CCN(C)CC4)C3)C2)C(=O)N(S(=O)(=O)c2ccc(OC)cn2)c2ccc(C#N)cc21 (racemic) [Example 8, (±)-3-(2-ethoxyphenyl)-1-[(5-methoxy-2-pyridyl)sulfonyl]-3-[2-(1-methyl-4-piperidyl)-2,6-diazaspiro[3.3]heptan-6-yl]-2-oxo-indoline-5-carbonitrile] | 1 to 10 nM | +++ (>75) |
| CCOc1ncccc1C1(N2CC3(CN(C4CCN(C)CC4)C3)C2)C(=O)N(S(=O)(=O)c2ccc(OC)cn2)c2ccc(C#N)cc21 (racemic) [Example 9, (±)-3-(2-ethoxy-3-pyridyl)-1-[(5-methoxy-2-pyridyl)sulfonyl]-3-[2-(1-methyl-4-piperidyl)-2,6-diazaspiro[3.3]heptan-6-yl]-2-oxo-indoline-5-carbonitrile] | 1 to 10 nM | +++ (>75) |
| CCOc1ccc(OC)cc1C1(N2CC3(CN(C4CCN(C5COC5)CC4)C3)C2)C(=O)N(S(=O)(=O)c2ccc(OC)cn2)c2ccc(C#N)cc21 (racemic) [Example 10, (±)-3-(2-ethoxy-5-methoxy-phenyl)-1-[(5-methoxy-2-pyridyl)sulfonyl]-3-[2-[1-(oxetan-3-yl)-4-piperidyl]-2,6-diazaspiro[3.3]heptan-6-yl]-2-oxo-indoline-5-carbonitrile] | 1 to 10 nM | +++ (>75) |
| CCOc1ncccc1C1(N2CC3(CN(C4CCN(C)CC4)C3)C2)C(=O)N(S(=O)(=O)c2ccc(OC)cc2)c2ccc(C#N)cc21 (racemic) [Example 12, (±)-3-(2-ethoxy-3-pyridyl)-1-(4-methoxyphenyl)sulfonyl-3-[2-(1-methyl-4-piperidyl)-2,6-diazaspiro[3.3]heptan-6-yl]-2-oxo-indoline-5-carbonitrile] | 10 to 100 nM |  |
| CCOc1ccc(OC)cc1C1(N2CC3(CN(C4CCN(C)CC4)C3)C2)C(=O)N(S(=O)(=O)c2ccc(C#N)cc2)c2ccc(C#N)cc21 (racemic) [Example 14, (±)-1-(4-cyanophenyl)sulfonyl-3-(2-ethoxy-5-methoxy-phenyl)-3-[2-(1-methyl-4-piperidyl)-2,6-diazaspiro[3.3]heptan-6-yl]-2-oxo-indoline-5-carbonitrile] | 10 to 100 nM | +++ (>75) |
| CCOc1ccc(OC)cc1C1(N2CC3(CN(C4CCN(C)CC4)C3)C2)C(=O)N(S(=O)(=O)c2ccc(C)cc2)c2ccc(C#N)cc21 (racemic) [Example 15, (±)-3-(2-ethoxy-5-methoxy-phenyl)-3-[2-(1-methyl-4-piperidyl)-2,6-diazaspiro[3.3]heptan-6-yl]-2-oxo-1-(p-tolylsulfonyl)indoline-5-carbonitrile] | 10 to 100 nM | ++ (25-75) |
| CCOc1ccc(OC)cc1C1(N2CC3(CN(C4CCN(C)CC4)C3)C2)C(=O)N(S(=O)(=O)c2ccc(F)cc2)c2ccc(C#N)cc21 (racemic) [Example 16, (±)-3-(2-ethoxy-5-methoxy-phenyl)-1-(4-fluorophenyl)sulfonyl-3-[2-(1-methyl-4-piperidyl)-2,6-diazaspiro[3.3]heptan-6-yl]-2-oxo-indoline-5-carbonitrile] | 10 to 100 nM | ++ (25-75) |
| CCOc1ccc(OC)cc1C1(N2CC3(CC(N4CCN(C)CC4)C3)C2)C(=O)N(S(=O)(=O)c2ccc(OC)cn2)c2ccc(C#N)cc21 (racemic) [Example 17, (±)-3-(2-ethoxy-5-methoxy-phenyl)-1-[(5-methoxy-2-pyridyl)sulfonyl]-3-[2-(4-methylpiperazin-1-yl)-6-azaspiro[3.3]heptan-6-yl]-2-oxo-indoline-5-carbonitrile] | < 1 nM | +++ (>75) |
| CCOc1ccc(OC)cc1C1(N2CC3(CN(C4CCN(C)CC4)C3)C2)C(=O)N(S(=O)(=O)c2ccc(OC)cn2)c2cc(C#N)ccc21 (racemic) [Example 29, (±)-3-(2-ethoxy-5-methoxy-phenyl)-1-[(5-methoxy-2-pyridyl)sulfonyl]-3-[2-(1-methyl-4-piperidyl)-2,6-diazaspiro[3.3]heptan-6-yl]-2-oxo-indoline-6-carbonitrile] | 1 to 10 nM |  |
| CCOc1ccc(OC)cc1C1(N2CC3(CN(C4CCN(C)CC4)C3)C2)C(=O)N(S(=O)(=O)c2ccc(OC)cc2)c2ccc(C#N)cc21 (single isomer, unassigned; (-)) [Example 6, (−)-3-(2-ethoxy-5-methoxy-phenyl)-1-(4-methoxyphenyl)sulfonyl-3-[2-(1-methyl-4-piperidyl)-2,6-diazaspiro[3.3]heptan-6-yl]-2-oxo-indoline-5-carbonitrile] | 10 to 100 nM |  |
| CCOc1ccc(OC)cc1[C@]1(N2CC3(CN(C4CCN(C)CC4)C3)C2)C(=O)N(S(=O)(=O)c2cccc(OC)n2)c2ccc(C#N)cc21 [Example 32, (3S)-3-(2-ethoxy-5-methoxy-phenyl)-1-[(6-methoxy-2-pyridyl)sulfonyl]-3-[2-(1-methyl-4-piperidyl)-2,6-diazaspiro[3.3]heptan-6-yl]-2-oxo-indoline-5-carbonitrile] | 10 to 100 nM |  |
